Laboratory results as given in publication PMC12263422, “Cryo-EM structure of the human THIK-1 K2P K^+ channel reveals a lower Y gate regulated by lipids and anesthetics” (Nature Structural & Molecular Biology, 2025).
Values joined by “and” are separate entries in the source; they are usually repeats but may differ in a detail not shown here. Identical values can stand only once. Like-named read-outs stand apart in the source and are kept apart here.

Target: T1, Human K2P13.1 THIK-1 (WT) (Homo sapiens, UniProt Q9HB14)
T1 construct: expressed in transfected cells; host or cells: Xenopus oocytes (mRNA injection)
T1 sequence (Q9HB14 1-408): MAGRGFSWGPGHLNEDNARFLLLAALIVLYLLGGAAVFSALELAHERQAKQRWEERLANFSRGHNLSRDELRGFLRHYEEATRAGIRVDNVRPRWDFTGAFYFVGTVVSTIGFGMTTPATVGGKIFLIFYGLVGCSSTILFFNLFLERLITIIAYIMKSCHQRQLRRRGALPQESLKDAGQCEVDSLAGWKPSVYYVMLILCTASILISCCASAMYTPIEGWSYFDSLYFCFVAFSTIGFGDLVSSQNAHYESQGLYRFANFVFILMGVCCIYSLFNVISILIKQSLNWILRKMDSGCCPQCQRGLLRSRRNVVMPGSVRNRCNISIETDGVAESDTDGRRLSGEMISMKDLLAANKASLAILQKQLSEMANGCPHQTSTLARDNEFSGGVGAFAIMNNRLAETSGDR
Assay: Macroscopic inside-out excised patch recordings from Xenopus oocytes expressing WT THIK-1; compounds applied to the intracellular side
Assay type: cell-based
Text: Human K2P13.1 THIK-1 (GenBank accession number: NM_022054) and human K2P12.1 THIK-2 (NM_022055.1) were used in this study. For functional expression studies, the respective K^+ channel subtype coding sequences were subcloned into the oocyte expression vector pSGEM or the dual-purpose expression vector pFAW[41] and verified by sequencing. All mutant channels were obtained by site-directed mutagenesis and verified by sequencing. To increase surface expression and macroscopic currents, measurements of THIK-2 channels used a mutated ER retention motif, (R11A R12A R14A R15A R16A; THIK-2*)[20]. Vector DNA was linearized with NheI or MluI, and mRNA was synthesized in vitro using the SP6 or T7 AmpliCap Max High Yield Message Maker Kit (Cellscript, USA) or HiScribe T7 ARCA mRNA Kit (New England Biolabs).
Two-electrode voltage–clamp (TEVC) studies were performed in Xenopus oocytes. All animal use conformed to the Guide for the Care and Use of Laboratory Animals (NIH Publication 85–23), and all experiments using Xenopus toads were approved by the local ethics panels. Oocytes were stored at 17 °C in ND96 recording solution composed of (in mM): 96 NaCl, 2 KCl, 1.8 CaCl2, 1 MgCl2, 5 HEPES (pH 7.5 adjusted with NaOH and HCl), supplemented with Na-pyruvate (275 mg L^–1), theophylline (90 mg L^–1) and gentamicin (50 mg L^–1). Oocytes were injected with 1 ng mRNA for WT or mutant channels, and were incubated for 24–48 h at 17 °C. Two-electrode voltage clamp recordings were then performed as previously described[42],[43]. For macroscopic patch–clamp measurements, oocytes were obtained as described above incubated at 17 °C in a solution containing (mM): 54 NaCl, 30 KCl, 2.4 NaHCO3, 0.82 MgSO4 ×7 H2O, 0.41 CaCl2, 0.33 Ca(NO3)2 ×4 H2O and 7.5 TRIS (pH 7.4 adjusted with NaOH and HCl) for 1–4 days before use. Excised patch recordings in inside-out configuration conditions were performed at room temperature. Patch pipettes were made from thick-walled borosilicate glass GB 200TF-8P (Science Products), had resistances of 0.2–0.5 MΩ (tip diameter, 10–25 µm) and filled with a pipette solution (in mM): 120 KCl, 10 HEPES and 3.6 CaCl2 (pH 7.4 adjusted with KOH and HCl). Intracellular bath solutions and compounds were applied to the cytoplasmic side of excised patches for the various K^+ channels through a gravity flow multi-barrel pipette system. The intracellular solution had the following composition (in mM): 120 KCl, 10 HEPES, 2 EGTA and 1 pyrophosphate (pH adjusted with KOH and HCl). Currents were recorded with an EPC10 amplifier (HEKA Electronics) and sampled at 10 kHz or higher, with filtering set to 3 kHz (–3 dB) or higher, as appropriate for sampling rate. For measurements of GPCR activation, whole-cell currents were recorded for THIK-1 in transiently transfected HEK-293 cells. Cells were stimulated by a ramp protocol between −100 and +60 mV (holding potential, −80 mV). The pipette solution was composed of (in mM): 140 KCl, 2 MgCl2, 1 CaCl2, 2.5 EGTA and 10 HEPES (pH 7.3 adjusted with KOH and HCl). The extracellular bath solution had the following composition (in mM): 135 NaCl, 5 KCl, 2 MgCl2, 2 CaCl2, 10 glucose and 10 HEPES pH (pH 7.3 adjusted with NaOH and HCl). Oxotremorine M (Oxo-M) was added to extracellular bath solution to obtain the final concentration. Single-channel currents were recorded with an Axopatch 200B amplifier through a Digidata 1440A digitizer (Molecular Devices). Data were filtered at 2 kHz and recorded at a 200-kHz sampling rate with the program Clampex (Molecular Devices). Pipette solution and bath solution for cell-attached recordings contained (in mM): 140 KCl, 2 MgCl2, 1 CaCl2 and 10 HEPES (pH 7.4 adjusted with KOH and HCl). For inside-out recordings, the bath solution contained (in mM): 140 KCl, 2 MgCl2, 1 CaCl2 and 10 HEPES (pH 7.2 adjusted with KOH and HCl). All experiments were conducted at room temperature. […]

[1] = WT (unstimulated), individual recordings
[2] = WT, PIP2, individual recordings
[3] = WT, oleoyl-CoA, individual recordings

Compound: CCCCC[N+](CCCCC)(CCCCC)CCCCC [TPenA, tetrapentylammonium]
- block of initial currents (0.5 mM TPenA, WT): ~ 80%
- Normalized currents (THIK-1 WT (unstimulated), 0.01 µM TPenA): 1.00
- Normalized currents (THIK-1 WT (unstimulated), 0.1 µM TPenA): 0.97
- Normalized currents (THIK-1 WT (unstimulated), 1 µM TPenA): 0.94
- Normalized currents (THIK-1 WT (unstimulated), 10 µM TPenA): 0.88
- Normalized currents (THIK-1 WT (unstimulated), 15.6 µM TPenA): 0.89
- Normalized currents (THIK-1 WT (unstimulated), 62.5 µM TPenA): 0.75
- Normalized currents (THIK-1 WT (unstimulated), 100 µM TPenA): 0.71
- Normalized currents (THIK-1 WT (unstimulated), 250 µM TPenA): 0.49
- Normalized currents (THIK-1 WT (unstimulated), 1000 µM TPenA): 0.21
- Normalized currents (THIK-1 WT (unstimulated), 4000 µM TPenA): 0.09
- Normalized currents (THIK-1 WT (unstimulated), 5000 µM TPenA): 0.09
- Normalized currents (TPenA 0.01 µM, THIK-1 WT (oleoyl-CoA, 5 µM)): 1
- Normalized currents (TPenA 0.01 µM, THIK-1 WT (unstimulated)): 1.00
- Normalized currents (TPenA 0.1 µM, THIK-1 WT (PIP2)): 1
- Normalized currents (TPenA 0.1 µM, THIK-1 WT (oleoyl-CoA, 5 µM)): 0.87
- Normalized currents (TPenA 0.1 µM, THIK-1 WT (unstimulated)): 0.97
- Normalized currents (TPenA 1 µM, THIK-1 WT (PIP2)): 0.86
- Normalized currents (TPenA 1 µM, THIK-1 WT (oleoyl-CoA, 5 µM)): 0.81
- Normalized currents (TPenA 1 µM, THIK-1 WT (unstimulated)): 0.94
- Normalized currents (TPenA 4 µM, THIK-1 WT (PIP2)): 0.54
- Normalized currents (TPenA 4 µM, THIK-1 WT (oleoyl-CoA, 5 µM)): 0.48
- Normalized currents (TPenA 10 µM, THIK-1 WT (unstimulated)): 0.88
- Normalized currents (TPenA 15.6 µM, THIK-1 WT (PIP2)): 0.26
- Normalized currents (TPenA 15.6 µM, THIK-1 WT (oleoyl-CoA, 5 µM)): 0.22
- Normalized currents (TPenA 15.6 µM, THIK-1 WT (unstimulated)): 0.89
- Normalized currents (TPenA 62.5 µM, THIK-1 WT (PIP2)): 0.1
- Normalized currents (TPenA 62.5 µM, THIK-1 WT (oleoyl-CoA, 5 µM)): 0.09
- Normalized currents (TPenA 62.5 µM, THIK-1 WT (unstimulated)): 0.75
- Normalized currents (TPenA 100 µM, THIK-1 WT (unstimulated)): 0.71
- Normalized currents (TPenA 250 µM, THIK-1 WT (PIP2)): 0.03
- Normalized currents (TPenA 250 µM, THIK-1 WT (oleoyl-CoA, 5 µM)): 0.04
- Normalized currents (TPenA 250 µM, THIK-1 WT (unstimulated)): 0.49
- Normalized currents (TPenA 1000 µM, THIK-1 WT (PIP2)): 0.02
- Normalized currents (TPenA 1000 µM, THIK-1 WT (oleoyl-CoA, 5 µM)): 0.02
- Normalized currents (TPenA 1000 µM, THIK-1 WT (unstimulated)): 0.21
- Normalized currents (TPenA 4000 µM, THIK-1 WT (PIP2)): 0.01
- Normalized currents (TPenA 4000 µM, THIK-1 WT (oleoyl-CoA, 5 µM)): 0.02
- Normalized currents (TPenA 4000 µM, THIK-1 WT (unstimulated)): 0.09
- Normalized currents (TPenA 5000 µM, THIK-1 WT (unstimulated)): 0.09
- IC50 (TPenA IC50, THIK-1 WT, individual recordings): 228 µM and 219 µM and 204 µM (2×) and 231 µM and 268 µM and 259 µM and 120 µM and 223 µM and 194 µM and 240 µM and 308 µM
- IC50 (TPenA IC50, THIK-1 WT, mean): 225 µM
- IC50 (TPenA IC50, intracellular application to excised patches, WT unstimulated): 225 ± 13 µM
- τ of 1 mM TPenA block [1]: 14.000 s and 10.890 s and 8.250 s and 24.220 s and 9.660 s and 10.730 s and 11.070 s and 13.110 s and 12.070 s and 8.080 s and 8.510 s
- τ of 1 mM TPenA release [1]: 76.730 s and 96.620 s and 52.570 s and 76.880 s and 103.780 s and 38.820 s and 101.050 s and 68.790 s and 74.350 s and 174.000 s and 73.800 s
- τ of 1 mM TPenA block (WT (unstimulated), mean): 11.87 s
- τ of 1 mM TPenA release (WT (unstimulated), mean): 85.22 s
- τblock (kinetics of TPenA block) (WT unstimulated): 12 ± 1 s
- τrelease (kinetics of TPenA release) (WT unstimulated): 85 ± 11 s
- τ of 1 mM TPenA block [2]: 0.324 s and 0.375 s and 0.323 s and 0.215 s and 0.293 s
- τ of 1 mM TPenA release [2]: 29.360 s and 29.550 s and 28.630 s and 28.550 s and 38.470 s and 25.420 s
- τblock (WT, PIP2 activated): 0.31 ± 0.02 s
- τrelease (WT, PIP2 activated): 30 ± 2 s
- τ of 1 mM TPenA block (WT, PIP2 activated, mean): 0.31 s
- τ of 1 mM TPenA release (WT, PIP2 activated, mean): 30.00 s
- τblock (WT, oleoyl-CoA activated): 0.5 ± 0.1 s
- τrelease (WT, oleoyl-CoA activated): 11 ± 1 s
- τ of 1 mM TPenA block (WT, oleoyl-CoA activated, mean): 0.53 s
- τ of 1 mM TPenA release (WT, oleoyl-CoA activated, mean): 10.85 s
- τ of 1 mM TPenA block [3]: 0.330 s and 0.560 s and 0.270 s and 0.340 s and 0.440 s and 0.930 s and 0.380 s and 0.720 s and 0.750 s and 0.360 s
- τ of 1 mM TPenA release [3]: 7.190 s and 6.440 s and 12.640 s and 12.180 s and 15.140 s and 8.860 s and 13.480 s
- inhibition at 15.6 µM (read-out: inhibition with 15.6 µM TPenA, WT channel in PIP2): 74 ± 1%
- inhibition at 15.6 µM (read-out: inhibition with 15.6 µM TPenA, WT channel in oleoyl-CoA): 78 ± 1%
- inhibition at 15.6 µM (read-out: inhibition with 15.6 µM TPenA, WT channel, unstimulated): 11 ± 1%
